Source: patent US9150545B2, “Carboxamide compounds and their use as calpain inhibitors V” (ABBVIE DEUTSCHLAND GMBH & CO. KG, priority 2012, dated 2015)
Structures can show the parent of a compound that is named as a salt.

Target: T1, calpain-I isolated from human erythrocytes (Homo sapiens, UniProt P07384)
T1 construct: calpain-I—isolated from human erythrocytes (Calbiochem #208713); purchased Calbiochem 208713; host or cells: human erythrocytes (native tissue isolate)
T1 sequence (P07384 1-714): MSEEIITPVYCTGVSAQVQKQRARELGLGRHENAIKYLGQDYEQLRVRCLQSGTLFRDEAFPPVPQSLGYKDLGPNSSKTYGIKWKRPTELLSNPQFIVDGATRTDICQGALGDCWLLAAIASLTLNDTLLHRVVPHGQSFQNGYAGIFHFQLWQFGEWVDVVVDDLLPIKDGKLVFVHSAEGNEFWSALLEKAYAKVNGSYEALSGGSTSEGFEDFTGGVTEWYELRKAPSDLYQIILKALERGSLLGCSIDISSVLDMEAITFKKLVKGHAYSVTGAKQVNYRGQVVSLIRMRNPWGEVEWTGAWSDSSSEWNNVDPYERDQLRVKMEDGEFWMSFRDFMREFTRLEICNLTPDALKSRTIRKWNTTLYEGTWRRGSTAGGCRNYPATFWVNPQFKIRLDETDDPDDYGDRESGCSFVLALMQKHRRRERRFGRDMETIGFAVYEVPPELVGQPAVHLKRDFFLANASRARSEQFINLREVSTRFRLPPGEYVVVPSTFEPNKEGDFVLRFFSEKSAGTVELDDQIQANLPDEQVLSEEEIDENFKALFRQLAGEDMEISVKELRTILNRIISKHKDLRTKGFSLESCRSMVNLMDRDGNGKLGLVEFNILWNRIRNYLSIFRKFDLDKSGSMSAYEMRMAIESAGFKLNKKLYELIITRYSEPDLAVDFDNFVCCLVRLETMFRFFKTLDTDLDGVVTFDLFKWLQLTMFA
T1 sequence (P04632 1-268 partner): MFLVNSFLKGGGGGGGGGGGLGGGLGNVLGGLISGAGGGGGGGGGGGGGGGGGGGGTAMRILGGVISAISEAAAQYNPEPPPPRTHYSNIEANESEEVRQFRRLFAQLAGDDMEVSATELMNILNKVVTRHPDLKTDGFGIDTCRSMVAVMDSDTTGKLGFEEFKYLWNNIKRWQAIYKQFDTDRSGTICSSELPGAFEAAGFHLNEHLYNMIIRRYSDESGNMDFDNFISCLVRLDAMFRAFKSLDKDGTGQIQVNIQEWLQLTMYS
Experiment: Calpain I kinetic fluorescence enzyme inhibition assay
Assay type: biochemical
Conditions: apparent Ki from IC50 by Cheng-Prussoff
Method: Testing for blockade of the corresponding enzymic activities was carried out by means of kinetic fluorescence assays (excitation 390 nm, emission 460 nm).
Apparent Ki values were calculated from the experimentally determined IC50 values by the Cheng-Prussoff relation assuming a reversible competitive enzyme inhibition.
20 nM calpain-I—isolated from human erythrocytes (Calbiochem #208713), 100 μM Suc-Leu-Tyr-AMC (Bachem #I-1355) as substrate in buffer with 62 mM imidazole, 0.3 mM CaCl2, 0.10% CHAPS, 0.05% BSA, 1 mM DTT at pH 7.3 and room temperature.

| Compound | Ki |
| --- | --- |
| NC(=O)C(=O)C(Cc1ccccc1)NC(=O)c1cccnc1-n1ccc(CN2Cc3cccc(F)c3C2)n1 (stereo not drawn) [Example 33, N-(4-Amino-3,4-dioxo-1-phenylbutan-2-yl)-2-(3-((4-fluoroisoindolin-2-yl)methyl)-1H-pyrazol-1-yl)nicotinamide trifluoroacetate] | < 250 nM |
| CC(c1ccn(-c2ncccc2C(=O)NC(Cc2ccccc2)C(=O)C(N)=O)n1)N1Cc2ccccc2C1 (stereo not drawn) [Example 35, N-(4-Amino-3,4-dioxo-1-phenylbutan-2-yl)-2-(3-(1-(isoindolin-2-yl)ethyl)-1H-pyrazol-1-yl)nicotinamide trifluoroacetate] | < 250 nM |
| NC(=O)C(=O)C(Cc1ccccc1)NC(=O)c1cccnc1-n1ccc(CN2Cc3ccccc3C2=O)n1 (stereo not drawn) [Example 36, N-(4-Amino-3,4-dioxo-1-phenylbutan-2-yl)-2-(3-((1-oxoisoindolin-2-yl)methyl)-1H-pyrazol-1-yl)nicotinamide] | < 250 nM |
| CCCCC(NC(=O)c1cccnc1-n1ccc(CN2CCC(F)(F)CC2)n1)C(=O)C(N)=O (stereo not drawn) [Example 38, N-(1-Amino-1,2-dioxoheptan-3-yl)-2-(3-((4,4-difluoropiperidin-1-yl)methyl)-1H-pyrazol-1-yl)nicotinamide] | < 250 nM |
| CCCCC(NC(=O)c1cccnc1-n1ccc(CN2Cc3ccccc3C2)n1)C(=O)C(N)=O (stereo not drawn) [Example 39, N-(1-Amino-1,2-dioxoheptan-3-yl)-2-(3-(isoindolin-2-ylmethyl)-1H-pyrazol-1-yl)nicotinamide] | < 250 nM |
| NC(=O)C(=O)C(Cc1ccccc1)NC(=O)c1cccnc1-n1cc2c(n1)CCN(Cc1ccccc1)C2 (stereo not drawn) [Example 40, N-(4-Amino-3,4-dioxo-1-phenylbutan-2-yl)-2-(5-benzyl-4,5,6,7-tetrahydro-2H-pyrazolo[4,3-c]pyridin-2-yl)nicotinamide] | < 250 nM |
| NC(=O)C(=O)C(Cc1ccccc1)NC(=O)c1cccnc1-n1cc2c(n1)CCNC2 (stereo not drawn) [Example 42, N-(4-Amino-3,4-dioxo-1-phenylbutan-2-yl)-2-(4,5,6,7-tetrahydro-2H-pyrazolo[4,3-c]pyridin-2-yl)nicotinamide hydrochloride] | < 250 nM |
| NC(=O)C(=O)C(Cc1ccccc1)NC(=O)c1cccnc1-n1cc2c(n1)CNC2 (stereo not drawn) [Example 44, N-(4-Amino-3,4-dioxo-1-phenyl-2-butanyl)-2-(5,6-dihydropyrrolo[3,4-c]pyrazol-2(4H)-yl)nicotinamide hydrochloride] | < 250 nM |
| CC(C)(C)OC(=O)N1CCc2cn(-c3ncccc3C(=O)NC(Cc3ccccc3)C(=O)C(N)=O)nc2C1 (stereo not drawn) [Example 45, tert-Butyl 2-(3-(4-amino-3,4-dioxo-1-phenylbutan-2-ylcarbamoyl)pyridin-2-yl)-2,4,5,7-tetrahydro-6H-pyrazolo[3,4-c]pyridine-6-carboxylate] | < 250 nM |
| NC(=O)C(=O)C(Cc1ccccc1)NC(=O)c1cccnc1-n1cc2c(n1)CNCC2 (stereo not drawn) [Example 46, N-(4-Amino-3,4-dioxo-1-phenyl-2-butanyl)-2-(4,5,6,7-tetrahydro-pyrazolo[3,4-c]pyridin-2-yl)nicotinamide hydrochloride] | < 250 nM |

More lines, now with the values ahead:

| Ki | Compound |
| --- | --- |
| < 250 nM | NC(=O)C(=O)C(Cc1ccccc1)NC(=O)c1cccnc1-n1ccc(CN2CCS(=O)(=O)CC2)n1 (stereo not drawn) [Example 34, N-(4-Amino-3,4-dioxo-1-phenyl-2-butanyl)-2-{3-[(1,1-dioxido-4-thiomorpholinyl)methyl]-1H-pyrazol-1-yl}nicotinamide trifluoroacetate] |
| < 250 nM | CCCCC(NC(=O)c1cccnc1-n1ccc(CN2CCCCC2)n1)C(=O)C(N)=O (stereo not drawn) [Example 37, N-(1-Amino-1,2-dioxoheptan-3-yl)-2-(3-(piperidin-1-ylmethyl)-1H-pyrazol-1-yl)nicotinamide] |
| < 250 nM | NC(=O)C(=O)C(Cc1ccccc1)NC(=O)c1cccnc1-n1cc2c(n1)CCN(CC1CC1)C2 (stereo not drawn) [Example 41, N-(4-Amino-3,4-dioxo-1-phenylbutan-2-yl)-2-(5-(cyclopropylmethyl)-4,5,6,7-tetrahydro-2H-pyrazolo[4,3-c]pyridin-2-yl)nicotinamide] |
| < 250 nM | CC(C)(C)OC(=O)N1Cc2cn(-c3ncccc3C(=O)NC(Cc3ccccc3)C(=O)C(N)=O)nc2C1 (stereo not drawn) [Example 43, tert-Butyl 2-(3-(4-amino-3,4-dioxo-1-phenylbutan-2-ylcarbamoyl)pyridin-2-yl)-4,6-dihydropyrrolo[3,4-c]pyrazole-5(2H)-carboxylate] |
| 800 to 1000 nM | O=C(NC1CC1)C(=O)C(Cc1ccccc1)NC(=O)c1cccnc1-n1ccc(CN2Cc3ccccc3C2)n1 (stereo not drawn) [Example C2, reference compound] |
